The record followed here is paper PMC12561670, “Isolation of Dual-Active Drugs with Anticancer and Antibacterial Activities That Target Both Tubulin and FtsZ” (Antibiotics, 2025).

The term Kd denotes a measure of binding affinity in units of concentration. High values mean weaker binding, low ones tighter binding. By MIC is commonly meant the lowest concentration found to suppress growth. One may read the viability as a read-out of living cells in per cent, often relative to untreated cells. One may read the IC50 as the point on the concentration scale where inhibition reaches its midpoint.

Converted amounts (≈) assume the structure as drawn. Where two headings read alike, the source gives them in different places.

The target in one data set is T1, FtsZ protein (Staphylococcus aureus, UniProt P0A031).
T1 construct: His tag; made in house; host or cells: E. coli BL21(DE3)
Description: Affinity assay by SPR technology. The format is binding, S. aureus. The procedure:
FtsZ Pre-Enrichment: FtsZ purified protein was dissolved in deionized water and prepared into a 1 g/L protein stock solution. Afterwards, protein concentration was diluted to 50 mg/L, respectively, using four different pH acetate buffer solutions (pH 4.0, 4.5, 5.0, 5.5). Subsequently, samples were injected, and the response values of protein FtsZ under different pH conditions were detected using the Biacore pre-enrichment system to determine the optimal protein coupling conditions.
FtsZ Coupling: Before coupling, the CM5 chip was first activated by EDC/NHS solution for 7 min; then, protein coupling was carried out, with a coupling time of 10 min and a protein flow rate of 10 μL/min; finally, the unreacted active sites on the chip were blocked by ethanolamine for 7 min.
The compounds were dissolved in DMSO, and then diluted to 50 μM with PBS (final concentration of DMSO was 5%). The mobile phase was a PBS solution containing 5% DMSO. The response value of the samples flowing through the surface of the FtsZ protein was analyzed by the Biacore T200 system. The monomer compounds with a higher response value to FtsZ (higher than or equal to the positive control) were screened as candidate compounds.
The concentration of candidate compounds was diluted by gradient with a double ratio, with concentration ranging from 0 to 64 μM (the final concentration of DMSO was 5%). Then, the binding response value was obtained. Kinetic curves were drawn according to the dose–effect relationship between the response value and the concentration of candidate compounds, and the binding specificity of candidate compounds and FtsZ was determined according to the curve fitting. Thus, small molecular monomers that can bind specifically to the FtsZ protein were found.
In general terms: In SPR one partner is held on a chip, and binding of the other changes the refractive index at the surface.

The test system of the next data set is E. Coli BL21 (DE3). Nature of the data set: Visualization of Z-ring in bacterial cells (GFP-tagged FtsZ). The data set is classed as cell-based. Conditions: 64 μM, 4 h. How it is done: The assay was carried out using a strain of E.coli BL21 (DE3) containing an IPTG-inducible plasmid, which can produce the green fluorescence protein (GFP)-tagged FtsZ to make the Z-ring visible. An overnight culture of E.coli was replated into 1 mL fresh MHB medium and incubated at 37 °C. Until OD600 = 0.3, 40 μM IPTG (Isopropyl β-D-1-thiogalactopyranoside) was added. […] After that, they were centrifuged and re-suspended in PBS, and then observed using the Leica SP-5 laser scanning confocal microscopy. Z-ring analysis was performed by employing LAS-AF-Lite software 2.6.0.

The next data set concerns P. aeruginosa (DSM 939). Nature of the data set: MIC, broth microdilution. The format is cell-based. Conditions: Pseudomonas aeruginosa, DSM939; broth microdilution, 18 h, 37 °C; read-out: MIC P. aeruginosa (DSM 939).
The nature of a further data set: Cytotoxicity, CCK8. The format is cell-based. To be noted: human, 12 h. How it is done:
The absorbance of 450 nm was measured in an ELISA reader (BioTek-Synergy 4, USA). Then, cell viability was calculated, and the corresponding images were drawn with GraphPad Prism 9.

Another data set deals with E. coli (ATCC 8739). Nature of the data set: MIC, broth microdilution. The format is cell-based. Conditions: Escherichia coli, ATCC8739; broth microdilution, 18 h, 37 °C; read-out: MIC E. coli (ATCC 8739). A general note: Dilution methods test growth across graded concentrations, often in twofold steps.
The next data set concerns the target T2, FtsZ (Staphylococcus aureus, UniProt P0A031).
T2 construct: His tag; made in house; host or cells: E. coli BL21(DE3)
T2 sequence (P0A031 1-390): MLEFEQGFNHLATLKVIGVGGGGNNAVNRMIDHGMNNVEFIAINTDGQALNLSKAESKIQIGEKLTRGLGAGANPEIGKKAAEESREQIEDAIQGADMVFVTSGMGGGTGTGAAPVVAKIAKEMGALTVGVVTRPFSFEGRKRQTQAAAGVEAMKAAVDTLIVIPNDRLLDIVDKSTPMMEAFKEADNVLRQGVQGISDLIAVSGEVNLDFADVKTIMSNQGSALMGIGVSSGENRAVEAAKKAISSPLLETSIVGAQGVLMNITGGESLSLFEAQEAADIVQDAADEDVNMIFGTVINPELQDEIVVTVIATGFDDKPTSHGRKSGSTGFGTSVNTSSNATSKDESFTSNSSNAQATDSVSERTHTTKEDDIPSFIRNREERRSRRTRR
Description: Sedimentation assay of FtsZ polymerization. The format is biochemical. Conditions: 50 μM compound, 5 μM FtsZ, 37 °C 30 min. How it is done:
Sedimentation assay was also conducted for the influence of compounds on FtsZ polymerization. FtsZ (5 μM) was polymerized in a buffer containing 25 mM Pipes buffer (pH 6.8) and 3 mM MgSO4 in the […] of DMSO or compounds (50 μM). After the addition of 4 mM GTP, the sample was instantly placed at 37 °C for 30 min. Then, the polymers were collected by centrifuging for 30 min at 25 °C. The protein concentration in the supernatant was determined using the Bradford quantification method, with bovine serum albumin (BSA) as the standard. The experiment was performed in triplicate, and the average absorbance is shown.

The test system of the next data set is A549. Nature of the data set: Anticancer activity IC50. To be noted: Homo sapiens, abstract only. The data set is classed as cell-based.
In another data set the test system is S. aureus (ATCC 6538). Nature of the data set: MIC, broth microdilution. Conditions: Staphylococcus aureus, ATCC6538; broth microdilution, 18 h, 37 °C; read-out: MIC S. aureus (ATCC 6538). The format is cell-based.

Take `CC(C)(C)c1[nH]cnc1/C=c1\[nH]c(=O)/c(=C/c2ccccc2)[nH]c1=O` [Compound 23, Plinabulin]: on FtsZ protein, the dissociation constant Kd was 15.3 µM. The “Chi^2” value at FtsZ protein (SPR fit) came to 0.234. The same compound came in with an Rmax at FtsZ protein (SPR, CM5 chip) of 11.82 RU. In addition, the Z-ring assembly entry in the data set on E. Coli BL21 (DE3) was “disturbed the Z-ring assembly”. Further, the MIC in the data set on P. aeruginosa (DSM 939) worked out at 32 µM (≈ 10.8 µg/mL); with E. coli (ATCC 8739) it was 64 µM (≈ 21.5 µg/mL); in the data set with S. aureus (ATCC 6538), 8 µM (≈ 2.69 µg/mL). Moreover, the viability at 100 µM was 79% in “Cytotoxicity, CCK8” (read-out: cell viability HT293 (293T)) and 81% in “Cytotoxicity, CCK8” (read-out: cell viability LO2). The “effect on FtsZ sedimentation (polymerization amount)” value on FtsZ is “markedly enhanced protein sedimentation”. Moreover, in the data set with A549, half-maximal inhibition (IC50) required 0.012 µM.
